Earlier results in article PMC3880013, “Toward an Understanding of Agonist Binding to Human Orexin-1 and Orexin-2 Receptors with G-Protein-Coupled Receptor Modeling and Site-Directed Mutagenesis” (Biochemistry, 2013).
Read-outs that look alike come from different tables or passages of the source. Marks after values point to notes of the source that are not given here. Where no end group is shown, it is not given here.

Columns and labels:
[1] = system: hOX1 V130A; conditions: hOX1 V130A (3.36) relative to wild type, [Ca2+]i response, ref 37 Malherbe et al., cited from earlier work
[2] = system: hOX1 F219A; conditions: hOX1 F219A (5.42) relative to wild type, [Ca2+]i response, ref 37 Malherbe et al., cited from earlier work
Source text: Other mutations had no major effect on efficacy. || We also explored the role of the conserved F^5.42. […] In the case of OX1, F^5.42 interacts with H26 of OxA that, based on the SDM experiments, has an only moderate impact on potency (see Figure 6A). This is in contrast to OX2 in which F^5.42 interacts with key residue I30 (see Figure 6B). Mutation of I30 of OxA to alanine complet ...

[3] = system: hOX1 H344A; conditions: cited from earlier work; for ratio EC50(mut)/EC50(WT): hOX1 H344A (7.39) relative to wild type, [Ca2+]i response, ref 37 Malherbe et al.
Source text: Other mutations had no major effect on efficacy. || An additional residue that plays a key role in OX receptor agonist binding and activation by Orexin peptides is H^7.39. […] We observed that in OX1, H^7.39 interacts with residues L16 and L20 of helix 1 of OxA (see Figure 6A). […] On the other hand, in OX2, H^7.39 interacts with L20 and not with L16 (see Figure 6B), and ...

[4] = system: hOX1 A127T; conditions: hOX1 A127T (3.33) relative to wild type; [Ca2+]i response; ref 37 Malherbe et al.; cited from earlier work
Source text: (§1) Table 1 Comparison of the Effects of Different Mutations in hOX1 and hOX2 on the Binding Potencies of Orexin-A and Orexin-B ^a | column: hOX1 / ratio ^b of Orexin-A

[5] = system: hOX1 Q126A; conditions: hOX1 Q126A (3.32) relative to wild type; [Ca2+]i response; ref 37 Malherbe et al.; cited from earlier work
Source text: as §1

[6] = system: hOX1 Y348A; conditions: hOX1 Y348A (7.43) relative to wild type; [Ca2+]i response; ref 37 Malherbe et al.; cited from earlier work
Source text: as §1

[7] = system: hOX2 Q134A; parameters: method as in earlier work; conditions: hOX2 Q134A (3.32) relative to wild type; [Ca2+]i response; ref 37 Malherbe et al.; cited from earlier work
[8] = system: hOX2 Y223A; parameters: method as in earlier work; conditions: hOX2 Y223A (5.38) relative to wild type, [Ca2+]i response, ref 37 Malherbe et al., cited from earlier work
[9] = system: hOX2 F227A; conditions: cited from earlier work; for ratio EC50(mut)/EC50(WT): hOX2 F227A (5.42) relative to wild type, [Ca2+]i response, ref 37 Malherbe et al.
Source text: In the case of OX1, F^5.42 interacts with H26 of OxA that, based on the SDM experiments, has an only moderate impact on potency (see Figure 6A). This is in contrast to OX2 in which F^5.42 interacts with key residue I30 (see Figure 6B). Mutation of I30 of OxA to alanine complet ...

[10] = system: hOX2 F228A; conditions: hOX2 F228A (5.43) relative to wild type; [Ca2+]i response; ref 37 Malherbe et al.; cited from earlier work
Source text: (§2) Table 1 Comparison of the Effects of Different Mutations in hOX1 and hOX2 on the Binding Potencies of Orexin-A and Orexin-B ^a | column: hOX2 / ratio ^b of Orexin-A

[11] = system: hOX2 I320A; conditions: hOX2 I320A (6.51) relative to wild type; [Ca2+]i response; ref 37 Malherbe et al.; cited from earlier work
Source text: as §2

[12] = system: hOX2 S139A; conditions: hOX2 S139A (3.37) relative to wild type; [Ca2+]i response; ref 37 Malherbe et al.; cited from earlier work
Source text: as §2

[13] = system: hOX2 T135A; conditions: hOX2 T135A (3.33) relative to wild type; [Ca2+]i response; ref 37 Malherbe et al.; cited from earlier work
Source text: as §2

[14] = system: hOX2 V138A; conditions: hOX2 V138A (3.36) relative to wild type; [Ca2+]i response; ref 37 Malherbe et al.; cited from earlier work
Source text: as §2

[15] = system: hOX2 V353A; conditions: hOX2 V353A (7.42) relative to wild type; [Ca2+]i response; ref 37 Malherbe et al.; cited from earlier work
Source text: as §2

[16] = system: hOX2 Y317F; conditions: hOX2 Y317F (6.48) relative to wild type; [Ca2+]i response; ref 37 Malherbe et al.; cited from earlier work
Source text: as §2

[17] = system: hOX2 Y354A; conditions: hOX2 Y354A (7.43) relative to wild type; [Ca2+]i response; ref 37 Malherbe et al.; cited from earlier work
Source text: as §2

[18] = system: hOX2 F346A; parameters: method as in earlier work; conditions: hOX2 F346A (7.35) relative to wild type, [Ca2+]i response, ref 37 Malherbe et al., cited from earlier work

**Q.** What does the source list for “Orexin-A (QPLPDCCRQKTCSCRLYELLHGAGNHAAGILTL; ends and bridges not checked; cysteine pairing not given here; UniProt O43612 34-66, looked up) [hypothalamic neuropeptide, 33 amino acids, two intramolecular disulfide bonds C6-C12 and C7-C14; natural OX1/OX2 agonist]”?
**A.** ratio EC50(mut)/EC50(WT) [1]: 30.6 ^c fold; ratio EC50(mut)/EC50(WT) ([1]; listed as OxA): 30.6 fold; ratio EC50(mut)/EC50(WT) [2]: 139.6 ^c fold; ratio EC50(mut)/EC50(WT) ([2]; listed as OxA): 139.6 fold; decrease in Emax ([3]; OX1 H7.39 (H344) mutated to alanine): 64.5%; ratio EC50(mut)/EC50(WT) [3]: 241.1 ^c fold; ratio EC50(mut)/EC50(WT) ([3]; listed as OxA): 241.1 fold; ratio EC50(mut)/EC50(WT) [4]: 1.8 ^c fold; ratio EC50(mut)/EC50(WT) [5]: 2.4 ^c fold; ratio EC50(mut)/EC50(WT) [6]: 8.7 ^c fold; ratio EC50(mut)/EC50(WT) [7]: 22.3 fold; ratio EC50(mut)/EC50(WT) [8]: 183.9 ^c fold; ratio EC50(mut)/EC50(WT) ([8]; listed as OxA): 183.9 fold; efficacy (reduced to) ([9]; hOX2 F5.42 (F227) mutated to alanine): 64.3%; ratio EC50(mut)/EC50(WT) [9]: 240.3 ^c fold; ratio EC50(mut)/EC50(WT) ([9]; listed as OxA): 240.3 fold; ratio EC50(mut)/EC50(WT) [10]: 3.0 ^c fold; ratio EC50(mut)/EC50(WT) [11]: 0.9 ^c fold; ratio EC50(mut)/EC50(WT) [12]: 2.5 ^c fold; ratio EC50(mut)/EC50(WT) [13]: 0.8 ^c fold; ratio EC50(mut)/EC50(WT) [14]: 4.4 ^c fold; ratio EC50(mut)/EC50(WT) [15]: 1.9 ^c fold; ratio EC50(mut)/EC50(WT) [16]: 1.3 ^c fold; ratio EC50(mut)/EC50(WT) [17]: 3.7 ^c fold; ratio EC50(mut)/EC50(WT) [18]: 54.5 ^c fold; ratio EC50(mut)/EC50(WT) ([18]; listed as OxA): 54.5 fold
